Data: article PMC11085156 (Molecules, 2024)
Read-outs that look alike come from different tables or passages of the source. Each block holds one molecule with its values, some of them ahead of it.

What was measured:
[1] = tested on: human dermal fibroblasts (CRL-2097); settings: 50 µM
Protocol: (§1) DMSO and water were the solvent controls for the artemisinic compounds and teas, respectively. Fibroblasts (passages 10–14) were seeded in 6-well plates in 2 mL medium at a density of 6250 cells/cm^2. After overnight attachment, media were aspirated and replaced with test drugs in growth media at the indicated concentrations and incubated at 37 °C and 5% CO2 in high humidity.
(§2) After 1 or 4 d of treatment, media were aspirated and replaced with media containing resazurin (Thermo Fisher Scientific B21187.03) at a final concentration of 25 µg/mL (stock solution 0.15 mg/mL in DPBS). […] Fluorescence readings were normalized to the appropriate solvent controls.

[2] = tested on: ACTA2, COL1A1, COL3A1, TGFB1, TGFB2, TGFBR1, MMP1, and MMP3; assay: qRT-PCR gene expression in drug-treated fibroblasts: panel of fibrosis-related marker genes; format: cell-based, human; settings: 4 d treatment; 50 µM
Protocol: Drug treatments were performed as follows. […] RNA from cells after 4 d of drug treatment was isolated using the NucleoSpin RNA/protein mini kit (Macherey-Nagel, Allentown, PA, USA, 740933.50) according to the manufacturer’s instructions. The concentration of isolated RNA was measured using a Nanodrop 2000c Spectrophotometer (Thermo Scientific). […] A SYBR-based PowerTrack master mix (Thermo Fisher Scientific A46012) was used to perform RT-qPCR on a QuantStudio 6 Pro Real-Time PCR system (Thermo Fisher Scientific) in 10 μL reactions. The thermal protocol was as follows: 95 °C for 2 min, then 40 cycles of 95 °C for 15 s and 60 °C for 60 s. PCR primer sequences are listed in Table 2 and were the same as used in Larson et al., 2019 [17]. Fold change in gene expression was determined using the ΔΔCT method with GAPDH as the housekeeping gene.

[3] = tested on: smooth-muscle α-actin (α-SMA); assay: Immunofluorescence staining for α-SMA in treated fibroblasts; format: cell-based, human; settings: 4 d treatment, 50 µM drug or tea (A. afra 1/4X)
Text: After 1 and 4 d, cells were fixed with paraformaldehyde and stained for immunofluorescence using primary mouse anti-α-SMA (Santa Cruz Biotechnology, Dallas, TX, USA, sc-32251) and secondary goat anti-mouse IgG AlexaFluor488-conjugated antibodies (Thermo Fisher Scientific A-11001), and DNA was counterstained with Hoechst 33342 as previously described.

[4] = GC-MS analysis of culture media incubated with drugs in the absence of cells; format: physicochemical
[5] = tested on: human dermal fibroblasts (CRL-2097); assay: Resazurin viability assay of human dermal fibroblasts; settings: for change in fibroblast viability: 50 µM
Protocol: as §1, §2

TGFB2 = assay: qRT-PCR gene expression in drug-treated fibroblasts: TGFB2; format: cell-based, human; settings: 4 d treatment; 50 µM; GAPDH internal control
Protocol: (§3) DMSO and water were the solvent controls for the artemisinic compounds and teas, respectively. Fibroblasts (passages 10–14) were seeded in 6-well plates in 2 mL medium at a density of 6250 cells/cm^2. After overnight attachment, media were aspirated and replaced with test drugs in growth media at the indicated concentrations and incubated at 37 °C and 5% CO2 in high humidity. After 4 d of drug treatment, cells were harvested, washed with 1× Dulbecco’s phosphate-buffered saline (DPBS; Thermo Fisher Scientific 14190136), snap frozen in liquid nitrogen, and stored at −80 °C until the time of RNA extraction for analysis.
(§4) RNA from cells after 4 d of drug treatment was isolated using the NucleoSpin RNA/protein mini kit (Macherey-Nagel, Allentown, PA, USA, 740933.50) according to the manufacturer’s instructions. The concentration of isolated RNA was measured using a Nanodrop 2000c Spectrophotometer (Thermo Scientific). Complementary DNA (cDNA) was synthesized from RNA using a QuantiTect reverse transcription kit (Qiagen, Germantown, MD, USA, 205313) following the manufacturer’s instructions. A SYBR-based PowerTrack master mix (Thermo Fisher Scientific A46012) was used to perform RT-qPCR on a QuantStudio 6 Pro Real-Time PCR system (Thermo Fisher Scientific) in 10 μL reactions.

TGFBR1 = assay: qRT-PCR gene expression in drug-treated fibroblasts: TGFBR1; format: cell-based, human; settings: 4 d treatment; 50 µM; GAPDH internal control
Protocol: as §3, §4

MMP1 = assay: qRT-PCR gene expression in drug-treated fibroblasts: MMP1; format: cell-based, human; settings: 4 d treatment; 50 µM; GAPDH internal control
Protocol: as §3, §4

MMP3 = assay: qRT-PCR gene expression in drug-treated fibroblasts: MMP3; format: cell-based, human; settings: 4 d treatment; 50 µM; GAPDH internal control
Protocol: as §3, §4

[6] = Thin-layer chromatography of media from drug-treated fibroblasts; format: in vitro ADME, human; settings: fibroblast cultures, 50 µM
Protocol: Media were extracted 1:1 with dichloromethane overnight, after which the solvent was separated and dried. Extracts (equivalent to 1 mL media) were resuspended in dichloromethane, spotted on Si-gel 60 F254 plates (EMD Millipore, Burlington, MA, USA, cat #1.05735.0001), and run in a mobile phase of 5:11:4 dichloromethane–hexane–acetone plus 0.5% v/v acetic acid. Plates were stained with p-anisaldehyde reagent (75 mL ethanol, 2.5 mL sulfuric acid, 1 mL acetic acid, and 2 mL p-anisaldehyde (Sigma Aldrich, St. Louis, MO, USA, A88107-100G)) and heated for 10 min at 105 °C.

[7] = cell-free culture media incubated 4 days, 50 µM ART drugs, GC-MS
[8] = cell-free culture media, 50 µM ART drugs, GC-MS
[9] = 1 d treatment, 50 µM drug or tea normalized to 50 µM ART, % of solvent control

concentration of dART in culture media, Day 4 [4, 7]: 500 ng/mL
concentration of the treatment drug (ART for the tea) in culture media, Day 4 ([4]; cell-free culture media incubated 4 days, 50 µM ART drugs, GC-MS, ND = not detected): 420 ng/mL
concentration of dART in culture media, Day 0 [4, 8]: 0 ng/mL
ART disappeared ([4]; day 4, cell-free culture media): > 99%
SMILES: C[C@@H]1CC[C@H]2[C@@H](C)C(=O)O[C@@H]3O[C@@]4(C)CC[C@@H]1[C@]32OO4 [ART, artemisinin]
effects on the expressions of other markers (other than MMP1) [2]: lacked effects
α-SMA staining compared to solvent control [3]: substantial increase
change in fibroblast viability ([5]; 1 d exposure, vs solvent control): no significant change
decrease in fibroblast viability ([5]; 4 d treatment, 50 µM drug or tea infusion, % of respective control): about 20%

concentration of dART in culture media, Day 4 [4, 7]: 1500 ng/mL
concentration of dART in culture media, Day 0 [4, 8]: 0 ng/mL
SMILES: C[C@H]1[C@H](OC(=O)CCC(=O)O)O[C@@H]2O[C@@]3(C)CC[C@H]4[C@H](C)CC[C@@H]1[C@@]24OO3 [AS, artesunate]
α-SMA staining compared to solvent control [3]: considerably decreased
decrease in fibroblast viability [5, 9]: ~35%

treatment drug remaining in media (TLC) ([6]; after day 1): nearly gone
dART in media (TLC) ([6]; day 4): observed
treatment drug (ART for the tea) remaining in media (TLC) ([6]; day 4): undetectable
concentration of dART in culture media, Day 4 [4, 7]: 6900 ng/mL
concentration of dART in culture media, Day 0 [4, 8]: 0 ng/mL
SMILES: C[C@H]1[C@@H](O)O[C@@H]2O[C@@]3(C)CC[C@H]4[C@H](C)CC[C@@H]1[C@@]24OO3 [DHA, dihydroartemisinin]
decrease in TGFB2 expression, fold change vs. solvent control (TGFB2): 3.7 fold
decrease in TGFBR1 expression, fold change vs. solvent control (TGFBR1): 4 fold
increase in MMP1 expression, fold change vs. solvent control (MMP1): 8 fold
increase in MMP3 expression, fold change vs. solvent control (MMP3): 51.8 fold
α-SMA staining compared to solvent control [3]: considerably decreased
decrease in fibroblast viability [5, 9]: ~45%

Further lines, the molecule ahead of its results:

SMILES: CO[C@H]1O[C@@H]2O[C@@]3(C)CC[C@H]4[C@H](C)CC[C@@H]([C@H]1C)[C@@]24OO3 [AM, artemether]
change in fibroblast viability [1]: no significant change

SMILES: C[C@@H]1CC[C@H]2[C@@H](C)C(=O)O[C@@H]3O[C@@]4(C)CC[C@@H]1[C@]32O4 [dART, deoxyartemisinin]
change in fibroblast viability ([5]; 4 d treatment, vs control): no change
